The target of one assay is T1, PKC-theta (Homo sapiens, UniProt Q04759).
T1 construct: purchased Cell Signaling, Danvers, Mass
Description: In vitro kinase assay PKC-theta (HTScan kit). Format: biochemical. The conditions noted are these: CID-2858522 up to 8 μM; STS 0.5 μM; PKC inhibitor 1 μM. Here is the method: CID-2858522 (8 μM) were tested in in vitro IKK beta (A), PKC beta […] or PKC theta (C) kinase assays using kits. STS (0.5 μM), IKK inhibitor (10 μM) and PKC inhibitor (1 μM) were used as positive controls.
In Vitro Kinase Assays. PKC-beta, PKC-theta and IKK-beta in vitro kinase assays were performed using the HTScan Kinase Assay Kit (Cell Signaling, Danvers, Mass.) according to manufacturer's protocols. A panel of >300 kinases was screened by Ambit, Inc.

Assay [1] concerns CARMA/MALT1/Bcl-10 complex. Description: Co-immunoprecipitation of CARMA1/CARMA3 with Bcl-10, MALT, TRAF6, IKKγ, Caspase-8 in transfected HEK293 cells. It counts as cell-based. Particulars: for inhibition of PMA-induced association of CARMA1 or CARMA3 with Bcl-10, MALT, TRAF6, IKKγ, Caspase-8: CID-2858522 4 μM, Bisindolylmaleimide I 1 μM. Here is the method:
FIG. 7. CID-285852 inhibits IKKβ phosphorylation induced by PKC activators. (A) HEK293 cells were cultured in 0.5% FBS medium for 24 h and then treated with CID-2858522 (4 μM) or PKC inhibitor, Bisindolylmaleimide I (1 μM) for 2 hrs followed by PMA/Ionomycin (10 ng/mL; 5 ng/mL) for 2 h. Cell lysates were subjected to immunoprecipitation using anti-CARMA1 antibody and analyzed by immunoblotting with anti-phospho-CARMA1 antibody or anti-CARMA1 antibody. (B-E) HEK293 cells were transfected with plasmids encoding myc-CARMA1 in combination with plasmids encoding various other proteins including Caspase-8 (cys287ala) (B), HA-IKK-γ (C), HA-TAK1 (D), and TRAF6 (E). After 36 h. cells were cultured in 0.5% FBS medium for 12 h and then treated with CID-2858522 (4 μM) or Bisindolylmaleimide I (1 μM) for 2 hrs, followed by PMA/Ionomycin treatment (10 ng/mL; 5 ng/mL) for 2 hrs. Cell lysates were immunoprecipated using anti-myc antibody and analyzed by immunoblotting using anti-Caspase8 (B), anti-HA (C,D), or anti-TRAF6 (E) antibodies. (F) HEK293 cells were treated with CID-2858522 (4 μM) or PKC inhibitor (1 μM) followed by PMA/Ionomycin (10 ng/mL; 5 ng/mL) treatment for 2 hrs. Cell lysates were normalized for protein content and analyzed by immunoblotting using anti-FLIP and anti-alpha-tubulin antibodies. […] Cell lysates were immunoprecipitated using anti-IKK-β and analyzed by immunoblotting using anti-phospho-IKK-β antibody or anti-IKK-β antibody (as loading control). Approximate molecular weights of all proteins are indicated in kiloDaltons.
Mapping the site of action of CID-2858522 in the antigen receptor-activated NF-κB pathway. […] To characterize the effects of CID-2858522 on these possible targets of the antigen receptor pathway for NF-κB activation, we first evaluated PMA-induced phosphorylation of Carmal, by phospho-specific antibody immunoblotting, finding no effect of CID-2858522 on this molecular event that initiates formation of the CBM complex (FIG. 7A). […]

Assay [2] concerns MALT1-caspase-8 interaction. As to the kind of experiment: PMA-induced MALT1-caspase-8 interaction in HEK293 cells. Format: cell-based. The conditions noted are these: HEK293 over-expressing Flag-MALT1 and Caspase-8, PMA. From the text: Caspase-8 plays an essential role in antigen receptor-mediated NF-κB activation. It was recently reported that MALT1 interacts with Caspase-8 and activates this protease upon antigen receptor activation. […] We then examined if CID-2858522 affected the pathway at this point. PMA induced significant MALT1-caspase-8 interaction in HEK293 cells over-expressing Flag-MALT1 and Caspase-8. […] The caspase-8 p43/41 processing intermediate was generated in HEK293 cells after PMA/Ion treatment. […] We then assessed the effects of CID-2858522 on PMA-induced proteolytic processing of c-FLIP, a Caspase-8-mediated event recently shown to be required for antigen receptor mediated NF-κB activation.

T1 sequence (Q04759 whole entry): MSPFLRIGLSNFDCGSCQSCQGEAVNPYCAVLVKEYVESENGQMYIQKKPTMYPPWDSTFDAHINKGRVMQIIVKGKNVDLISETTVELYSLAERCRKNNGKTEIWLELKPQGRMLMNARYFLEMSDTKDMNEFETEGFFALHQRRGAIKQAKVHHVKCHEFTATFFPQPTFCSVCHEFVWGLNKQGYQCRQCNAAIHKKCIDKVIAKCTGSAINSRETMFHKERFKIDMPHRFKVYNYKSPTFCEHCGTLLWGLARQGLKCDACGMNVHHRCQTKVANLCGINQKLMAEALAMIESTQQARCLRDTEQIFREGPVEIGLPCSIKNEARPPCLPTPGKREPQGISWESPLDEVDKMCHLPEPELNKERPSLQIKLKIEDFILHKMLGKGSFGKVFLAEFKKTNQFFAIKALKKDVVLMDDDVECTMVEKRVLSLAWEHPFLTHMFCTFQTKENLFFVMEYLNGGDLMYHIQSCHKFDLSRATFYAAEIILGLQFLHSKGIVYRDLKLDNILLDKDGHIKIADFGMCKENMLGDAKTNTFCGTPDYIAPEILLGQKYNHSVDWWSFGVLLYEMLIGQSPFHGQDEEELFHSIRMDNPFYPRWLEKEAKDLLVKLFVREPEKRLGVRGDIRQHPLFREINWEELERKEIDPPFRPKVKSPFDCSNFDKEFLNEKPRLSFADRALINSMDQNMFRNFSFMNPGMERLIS

`CN(C)CCCn1cc(C2=C(c3c[nH]c4ccccc34)C(=O)NC2=O)c2ccccc21` [Bisindolylmaleimide I, reference compound]: on PKC-theta, the “inhibition of PKC-theta kinase activity” value was “potent inhibition”. Further, in assay [1], the “inhibition of PMA-induced association of CARMA1 or CARMA3 with Bcl-10, MALT, TRAF6, IKKγ, Caspase-8” value is listed as “inhibited”. The “inhibition of MALT1-caspase-8 interaction” value in assay [2] is listed as “inhibited”.
For the molecule `Cc1cc2nc(NCCCO)n(CC(=O)c3cc(C(C)(C)C)c(O)c(C(C)(C)C)c3)c2cc1C` [Compound 1, 2-(2-(3-Hydroxypropylamino)-5,6-dimethyl-1H-benzo[d]imidazol-1-yl)-1-(3,5-di-tert-butyl-4-hydroxyphenyl)ethanone], the “inhibition of PKC-theta kinase activity” value against PKC-theta was “failed to suppress”. In addition, the “inhibition of PMA-induced association of CARMA1 or CARMA3 with Bcl-10, MALT, TRAF6, IKKγ, Caspase-8” value in assay [1] is “not by CID-2858522”. Also, the “disruption of CARMA/MALT1/Bcl-10 (CMB) complex formation” value in assay [1] (PMA/Ionomycin, cells or lysate) is given as “did not disrupt”. Moreover, in assay [2], the “inhibition of MALT1-caspase-8 interaction” value was “not by CID-2858522”.

For the origin of these results see patent publication US20090247520A1, “INHIBITORS OF ANTIGEN RECEPTOR-INDUCED NF-kappa B ACTIVATION” (The Burnham Institute for Medical Research, priority 2008, published 2009).
